# Test system: ATPase activity endogenous to L929 cell lysate
# Test: Detergent inhibition of ATPase endogenous to L929 cell lysate (ATP remaining by luciferase luminescence, 22° C.)
# Format: biochemical
# Parameters: key to Relative ATPase Activity, slope det/slope lysate: slope with detergent / slope without; ≥1.0 = 100% activity, 0.5 = 50%
# Procedure: Three separate detergents in each of four detergent classes were tested: anionic [SDS (Sodium dodecyl sulfate), Bioterge (an α olefin sulfate), and sodium deoxycholate], nonionic [TRITON X-100, BigCHAP (N,N-bis(3-D-Gluconamidopropyl)cholamide) and THESIT (polyethylene glycol 400 dodecyl ether, Fluka, #88315)], cationic [BDDABr (Benzyldimethyldodecylammonium bromide), CTAB (Cetyltrimethylammonium bromide), and DTAB (dodecyltrimethylammonium bromide)] and zwitterionic [CHAPS (3[(3-Cholamidopropyl)dimethylammonio]propanesulfonic acid), CHAPSO (3-([3-Cholamidopropyl]dimethylammonio)-2-hydroxy-1-propanesulfonate), and Sulfobetaine 3-10 ([…]-N,N-dimethyl-3-ammonio-1-propanesulfonate)]. Detergents were obtained from Sigma, Fluka and Aldrich.
# L929 cells (ATCC CCL-1; 1.5×10^5 cells/ml) in F12/DMEM (Hyclone, SH30023) containing 10% horse serum (Hyclone, SH30074) were frozen and thawed for four cycles to create a cell lysate. Then 50 μl of stock detergent solutions [10%, 5.0%, 1.0%, and 0.5% (w/v)] were separately added to 450 μl cell lysate, creating a final detergent concentration in the cell lysate sample of 1.0%, 0.5%, 0.1%, and 0.05%, respectively (these percentage values are those used in Tables D and E herein below). Control samples contained either lysate only or 1.0 μM ATP in 15 mM HEPES buffer (pH 7.5). All samples were incubated at 22° C. (room temperature) for the duration of the experiment.
# At various timepoints, 20 μl from each sample/detergent mixture was added to a 96-well luminometer plate in triplicate, and then 100 μl of a solution (“luciferase-luciferin” or “L/L reagent”) containing 25 mM HEPES buffer (pH 7.5), 40 μg luciferase enzyme LucPpe2m146 (Promega, E140), 100 μM luciferin (Promega), and 10 mM MgSO4 was added to each well. The L/L reagent was stored at 4° C. for the duration of the experiment and then allowed to reach ambient temperature just before assaying. After mixing the contents of the plate, light output was measured with a Dynex MLX microtiter plate luminometer (Chantilly, Va.), 0.5 second reads per well with the first measurement taken five minutes after the detergent solution was combined with the sample. The average relative light units and the timepoint at which it was measured (rlu; Table D) and percent of remaining luciferase activity at the timepoint (Table E) are reported; controls were run with each set of experimental conditions as indicated. The cationic and anionic detergents were assayed on one day with one set of controls. The zwitterionic and nonionic detergents were assayed on a separate day with a separate set of controls. The DTAB at 0.5% was assayed on both days (1 and 2).
# The experiment was performed as detailed in Example 1. The average relative light unit values and the percent of ATP remaining values are listed below in Table F and G respectively.
# The log of the percent of ATP remaining after original timepoint values from Table E and Table G were plotted on the y axis against time (in minutes) on the x axis. The slope of the line generated by these values in the presence of detergent was divided by the slope of the line generated by the values in the absence of detergent (lysate control) resulting in the Relative ATPase Activity values listed below in Table H.
# A relative activity value of 1.0 or greater indicates 100% cellular ATPase activity at the concentration of detergent tested. A relative activity value of 0.5 indicates a two-fold (or 50%) decrease in the level of cellular ATPase activity at the concentration of detergent tested when compared to the ATPase activity level in the absence of the detergent. A relative activity value of 0.2 indicates a five-fold (or 80%) decrease in the level of cellular ATPase activity at the concentration of detergent tested when compared to the ATPase activity level in the absence of the detergent.
smiles,measurement,setting,value
"C[C@H](CCC(=O)NCCC[N+](C)(C)CC(O)CS(=O)(=O)[O-])[C@H]1CC[C@H]2[C@@H]3[C@H](O)C[C@@H]4C[C@H](O)CC[C@]4(C)[C@H]3C[C@H](O)[C@]12C (stereo partly drawn) [CHAPSO, 3-([3-Cholamidopropyl]dimethylammonio)-2-hydroxy-1-propanesulfonate]",Average Relative Light Unit Values,"0.05% detergent, 5 min",6396.53 rlu
same,Percent ATP Remaining,"0.05% detergent, 5 min",100%
same,Average Relative Light Unit Values,"0.05% detergent, 75 min",2424.54 rlu
same,Percent ATP Remaining,"0.05% detergent, 75 min",37.9%
same,Average Relative Light Unit Values,"0.05% detergent, 169 min",1124.83 rlu
same,Percent ATP Remaining,"0.05% detergent, 169 min",17.6%
same,Average Relative Light Unit Values,"0.05% detergent, 222 min",480.09 rlu
same,Percent ATP Remaining,"0.05% detergent, 222 min",7.5%
same,Average Relative Light Unit Values,"0.05% detergent, 260 min",238.80 rlu
same,Percent ATP Remaining,"0.05% detergent, 260 min",3.7%
same,"Relative ATPase Activity, slope det/slope lysate",0.05 percent detergent,1.080
same,Slope (log percent ATP remaining vs time in minutes),0.05 percent detergent,−0.0057
same,Average Relative Light Unit Values,"0.1% detergent, 5 min",6549.85 rlu
same,Percent ATP Remaining,"0.1% detergent, 5 min",100%
same,Average Relative Light Unit Values,"0.1% detergent, 75 min",2584.56 rlu
same,Percent ATP Remaining,"0.1% detergent, 75 min",39.5%
same,Average Relative Light Unit Values,"0.1% detergent, 169 min",1210.14 rlu
same,Percent ATP Remaining,"0.1% detergent, 169 min",18.5%
same,Average Relative Light Unit Values,"0.1% detergent, 222 min",558.69 rlu
same,Percent ATP Remaining,"0.1% detergent, 222 min",8.5%
same,Average Relative Light Unit Values,"0.1% detergent, 260 min",280.84 rlu
same,Percent ATP Remaining,"0.1% detergent, 260 min",4.3%
same,"Relative ATPase Activity, slope det/slope lysate",0.10 percent detergent,1.030
same,Slope (log percent ATP remaining vs time in minutes),0.10 percent detergent,−0.0054
same,Average Relative Light Unit Values,"0.5% detergent, 5 min",7422.26 rlu
same,Percent ATP Remaining,"0.5% detergent, 5 min",100%
same,Average Relative Light Unit Values,"0.5% detergent, 75 min",4089.32 rlu
same,Percent ATP Remaining,"0.5% detergent, 75 min",55.1%
same,Average Relative Light Unit Values,"0.5% detergent, 169 min",2581.01 rlu
same,Percent ATP Remaining,"0.5% detergent, 169 min",34.8%
same,Average Relative Light Unit Values,"0.5% detergent, 222 min",1460.54 rlu
same,Percent ATP Remaining,"0.5% detergent, 222 min",19.7%
same,Average Relative Light Unit Values,"0.5% detergent, 260 min",923.81 rlu
same,Percent ATP Remaining,"0.5% detergent, 260 min",12.4%
same,"Relative ATPase Activity, slope det/slope lysate",0.50 percent detergent,0.685
same,Slope (log percent ATP remaining vs time in minutes),0.50 percent detergent,−0.0036
same,Average Relative Light Unit Values,"1.0% detergent, 5 min",7160.63 rlu
same,Percent ATP Remaining,"1.0% detergent, 5 min",100%
same,Average Relative Light Unit Values,"1.0% detergent, 75 min",3803.84 rlu
same,Percent ATP Remaining,"1.0% detergent, 75 min",53.1%
same,Average Relative Light Unit Values,"1.0% detergent, 169 min",2376.31 rlu
same,Percent ATP Remaining,"1.0% detergent, 169 min",33.2%
same,Average Relative Light Unit Values,"1.0% detergent, 222 min",1332.97 rlu
same,Percent ATP Remaining,"1.0% detergent, 222 min",18.6%
same,Average Relative Light Unit Values,"1.0% detergent, 260 min",840.57 rlu
same,Percent ATP Remaining,"1.0% detergent, 260 min",11.7%
same,"Relative ATPase Activity, slope det/slope lysate",1.00 percent detergent,0.703
same,Slope (log percent ATP remaining vs time in minutes),1.00 percent detergent,−0.0037
